This note sets out measurements from PMC8041284, “Tunable Methacrylamides for Covalent Ligand Directed Release Chemistry” (Journal of the American Chemical Society, 2021).

As a reminder, the inhibition is the change of the read-out against control, counted positive when it falls.

Where a SMILES comes first, the peptide text is derived from it. [ ]: non-standard residue; d: D form. The star is where a group is joined. Benzoyl(4-tBu) = CC(C)(C)c1ccc(C(=O)*)cc1; Lys(Et2) = CCN(CC)CCCC[C@H](N)C(=O)O

BTK, sequence (Q06187 402-655 limits assumed): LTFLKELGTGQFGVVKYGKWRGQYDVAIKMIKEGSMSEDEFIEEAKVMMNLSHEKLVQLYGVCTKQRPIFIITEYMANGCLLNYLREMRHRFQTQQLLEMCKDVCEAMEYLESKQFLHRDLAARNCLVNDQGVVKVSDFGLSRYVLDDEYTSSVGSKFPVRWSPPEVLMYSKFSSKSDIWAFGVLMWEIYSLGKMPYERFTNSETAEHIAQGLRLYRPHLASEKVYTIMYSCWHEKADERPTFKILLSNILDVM

One test has as its target BTK (Homo sapiens, UniProt Q06187). As to the kind of experiment: biochemical. The conditions noted are these: read-out: BTK inhibition (%).
Consider `COc1cc(OC)c(OC)cc1C=O` [PCM-0091340], for which the inhibition at 10 µM was -12.4%.

With `O=P1(NCCCl)OCCCN1CCCl` (stereo not drawn) [PCM-0086467], the inhibition at 10 µM is -10.3%.

The same test, now with this note: read-out: BTK inhibition (%), 0.75 uM BTK, […] probe 3l, 15 min preincubation.
`CCN(CC)CCCC[C@H](NC(=O)[C@H](CC(C)C)NC(=O)[C@H](C)NC(=O)[C@H](Cc1ccccc1)NC(=O)c1ccc(C(C)(C)C)cc1)C(=O)N[C@@H](CO)C(=O)OC` [PCM-0215741] ({Benzoyl(4-tBu)}-FAL[Lys(Et2)]S-OMe): the inhibition at 10 µM was -16.2%.

Consider `OC[C@H]1O[C@H](OC[C@H]2OC(O)[C@H](O)[C@@H](O)[C@@H]2O)[C@H](O)[C@@H](O)[C@H]1O` (stereo partly drawn) [PCM-0215071], for which the inhibition at 10 µM was -21.8%.

In the case of `C=C(C(=O)O)[C@@H]1CC[C@@H](C)[C@@H]2CCC(C)=C[C@@H]21` [PCM-0216417], the inhibition at 10 µM was found to be 0%.

With `OC[C@H]1O[C@@H](O[C@@H]2[C@@H](CO)O[C@](O)(CO)[C@H]2O)[C@H](O)[C@@H](O)[C@H]1O` [PCM-0214810], the inhibition at 10 µM stood at 13.2%.

Consider `C[n+]1cc2c3c(ccc2c2ccc4cc5c(cc4c21)OCO5)OCO3` [PCM-0065605], for which the inhibition at 10 µM amounted to 75.7%.

As for `Cc1cc(O)c(C(=O)CCC(C)C)c(=O)o1` [PCM-0216387], the inhibition at 10 µM was found to be 5.4%.

In the case of `Cc1ccc(-c2csc(NC(=O)c3ccccc3)n2)c(C)c1` [PCM-0215320], the inhibition at 10 µM worked out at 60.2%.

`N[C@@H](Cc1cc(I)c(O)c(I)c1)C(=O)O` [PCM-0215163]: the inhibition at 10 µM was -31.9%.

`CC1(C)CC[C@]2(C)CC[C@]3(C)C(=CC[C@@H]4[C@@]5(C)CC[C@@H](O)[C@](C)(C(=O)O)[C@@H]5CC[C@]43C)[C@@H]2C1` [PCM-0216570]: the inhibition at 10 µM is -6.9%.

Consider `Cc1nnc(SCC2=C(C(=O)O)N3C(=O)[C@@H](NC(=O)Cn4cc(Cl)c(=O)c(Cl)c4)[C@H]3SC2)s1` [PCM-0215135], for which the inhibition at 10 µM was -13.2%.

As to `CC(C)(O)CNc1nc(Nc2ccnc(C(F)(F)F)c2)nc(-c2cccc(C(F)(F)F)n2)n1` [PCM-0215637], the inhibition at 10 µM turned out to be 19.3%.

As for `COC1[C@@H](O)[C@@H](O)C(O)[C@H](O)[C@H]1O` (stereo partly drawn) [PCM-0215037], the inhibition at 10 µM is -11%.

Consider `CCOc1ccccc1-n1c(C(C)N2CCN(C(=O)COc3ccc(Cl)cc3)CC2)nc2ccccc2c1=O` (stereo not drawn) [PCM-0095811], for which the inhibition at 10 µM was 15.4%.

On to `C[C@H](Oc1ccc(S(C)(=O)=O)cc1C(=O)N1CCN(c2ncc(C(F)(F)F)cc2F)CC1)C(F)(F)F` [PCM-0215624], for which the inhibition at 10 µM is -20.1%.

With `CC[C@H](C)C(=O)O[C@H]1C[C@@H](C)C=C2C=C[C@H](C)[C@H](CC[C@@H]3C[C@@H](O)CC(=O)O3)[C@H]21` [PCM-0086045], the inhibition at 10 µM was found to be 9.3%.

With `CN(C)c1nc(N(C)C)nc(N(C)C)n1` [PCM-0064404], the inhibition at 10 µM came out at 15.9%.

For `CCCCCCCCCC(=O)N[C@@H](Cc1c[nH]c2ccccc12)C(=O)N[C@H](CC(N)=O)C(=O)N[C@@H](CC(=O)O)C(=O)N[C@@H]1C(=O)NCC(=O)N[C@@H](CCCN)C(=O)N[C@@H](CC(=O)O)C(=O)N[C@H](C)C(=O)N[C@@H](CC(=O)O)C(=O)NCC(=O)N[C@H](CO)C(=O)N[C@@H]([C@H](C)CC(=O)O)C(=O)N[C@@H](CC(=O)c2ccccc2N)C(=O)O[C@@H]1C` [PCM-0095008], the inhibition at 10 µM is -1.6%.

Consider `CO/N=C(\C(=O)N[C@@H]1C(=O)N2C(C(=O)OC(C)OC(C)=O)=C(COC(N)=O)CS[C@H]12)c1ccco1` (stereo partly drawn) [PCM-0215079], for which the inhibition at 10 µM is 2.8%.

On to `O[C@@H]1CO[C@H]2[C@@H]1OC[C@@H]2O` [PCM-0214776], for which the inhibition at 10 µM is -3.9%.

As for `CCCCCOC(=O)Nc1nc(=O)n([C@@H]2O[C@H](C)[C@@H](O)[C@H]2O)cc1F` [PCM-0094987], the inhibition at 10 µM is -11.7%.

With `COc1cccc2c1C(=O)c1c(O)c3c(c(O)c1C2=O)C[C@@](O)(C(=O)CO)C[C@@H]3O[C@H]1C[C@H](N)[C@@H](O)[C@H](C)O1` [PCM-0090504], the inhibition at 10 µM was 45.1%.

As for `CC1(C)CC[C@]2(C(=O)O)CC[C@]3(C)C(=CC[C@@H]4[C@@]5(C)CC[C@H](O)C(C)(C)[C@@H]5CC[C@]43C)[C@@H]2C1` [PCM-0214680], the inhibition at 10 µM was found to be 27.2%.

Turning to `COC(=O)[C@H](O)[C@@H](NC(=O)c1ccccc1)c1ccccc1` [PCM-0216282], the inhibition at 10 µM is -5.4%.

For the compound `O=C(NOCC1CC1)c1ccc(F)c(F)c1Nc1ccc(I)cc1Cl` [PCM-0094919], the inhibition at 10 µM stood at 5.5%.

`CNC1CCC(N(Cc2cccc(-c3ccncc3)c2)C(=O)c2sc3ccccc3c2Cl)CC1` (stereo not drawn) [PCM-0215509]: the inhibition at 10 µM is -8.5%.

For the compound `CC12CC(c3ccoc3)OC13CC(OC3=O)C1C3CC(CC12)OC3=O` (stereo not drawn) [PCM-0216321], the inhibition at 10 µM is 2.3%.

Consider `Cc1cc(SCc2sc(-c3ccc(C(F)(F)F)c(F)c3)nc2C)ccc1OCC(=O)O` [PCM-0095608], for which the inhibition at 10 µM was -5.4%.

In the case of `O=C(O)[C@@H]1CCCN1` [PCM-0216221], the inhibition at 10 µM is -24.7%.

Turning to `CC(C)C(=O)Oc1ccc(CO)cc1[C@H](CCN(C(C)C)C(C)C)c1ccccc1` [PCM-0095281], the inhibition at 10 µM is -0.8%.

`COc1ccc(-c2oc3c(CC=C(C)C)c(O[C@@H]4O[C@H](CO)[C@@H](O)[C@H](O)[C@H]4O)cc(O)c3c(=O)c2O[C@@H]2O[C@@H](C)[C@H](O)[C@@H](O)[C@H]2O[C@@H]2O[C@@H](C)[C@H](O)[C@@H](O)[C@H]2O)cc1` [PCM-0216512]: the inhibition at 10 µM was -13.1%.

In the case of `CC(C)COc1ccc(CNC(=O)N(Cc2ccc(F)cc2)C2CCN(C)CC2)cc1` [PCM-0215604], the inhibition at 10 µM is -3.9%.

For `N#C[C@@H]1C[C@@H]2C[C@@H]2N1C(=O)[C@@H](N)C12CC3CC(CC(O)(C3)C1)C2` [PCM-0095098], the inhibition at 10 µM was -22.6%.

With `CC(=O)OC(C)C(C)C(=O)OC[C@@]12[C@H]3C[C@]4(C)C(=CC[C@@H]5[C@@]6(C)CC[C@H](O[C@@H]7O[C@H](C(=O)O)[C@@H](O[C@@H]8O[C@H](CO)[C@@H](O)[C@H](O)[C@H]8O)[C@H](O)[C@H]7O[C@@H]7OC[C@@H](O)[C@H](O)[C@H]7O)[C@@](C)(CO)[C@@H]6CC[C@]54C)[C@@H]1CC(C)(C)[C@H](O3)[C@@H]2O` (stereo partly drawn) [PCM-0215924], the inhibition at 10 µM was 5.1%.

In the case of `Nc1ccccc1NC(=O)c1ccc(CNC(=O)OCc2cccnc2)cc1` [PCM-0094980], the inhibition at 10 µM was 9.7%.

In the case of `OCCOCCN1CCN(C2=Nc3ccccc3Sc3ccccc32)CC1` [PCM-0086113], the inhibition at 10 µM was -4.7%.

With `Cc1cc(NC(=O)Nc2ccc(N(C)C)cc2)c2cc(F)cc(F)c2n1` [PCM-0095106], the inhibition at 10 µM amounted to 6.2%.

`O=C(NCCCNc1nc(Nc2cccc(CN3CCOCC3)c2)ncc1C1CC1)C1CCC1` [PCM-0215642]: the inhibition at 10 µM was 21.6%.

As for `O=C(c1ccc(/C=C/c2n[nH]c3ccccc23)cc1)N1CCNCC1` [PCM-0095209], the inhibition at 10 µM was 46.2%.

Turning to `C/C=C/c1ccc(OC)cc1` [PCM-0090331], the inhibition at 10 µM came to 18.7%.

In the case of `CC(C)(CNC(=O)c1cccc(-c2noc(C(F)(F)F)n2)c1)c1coc(-c2ccccc2)n1` [PCM-0215836], the inhibition at 10 µM is -30.9%.

For `CN[C@@H]1[C@H](O[C@H]2[C@H](O[C@H]3[C@H](O)[C@@H](O)[C@H](N=C(N)N)[C@@H](O)[C@@H]3N=C(N)N)O[C@@H](C)[C@]2(O)CO)O[C@@H](CO)[C@H](O)[C@H]1O` [PCM-0085923], the inhibition at 10 µM was 9.4%.

Regarding `Cc1ccc(O)c(O)c1` [PCM-0216565], the inhibition at 10 µM came to 6.2%.

On to `Cc1ccc(C(=O)N(CCCN)[C@@H](c2nc3cc(Cl)ccc3c(=O)n2Cc2ccccc2)C(C)C)cc1` [PCM-0095123], for which the inhibition at 10 µM was found to be 11.7%.

Consider `CC(C)(CO)[C@@H](O)C(=O)NCCC(=O)NCCSSCCNC(=O)CCNC(=O)[C@H](O)C(C)(C)CO` [PCM-0216020], for which the inhibition at 10 µM is -28.9%.

For `O=C(O)c1ccc(-c2ccc(/C=C3\SC(=S)N(Cc4ccccc4)C3=O)o2)cc1` [PCM-0215715], the inhibition at 10 µM turned out to be 11.6%.

With `COC(=O)c1ccc(O)c(O)c1` [PCM-0215036], the inhibition at 10 µM was -15.6%.

In the case of `COc1ccc([C@@H]2CC(=O)c3c(O)cc(O[C@@H]4O[C@H](CO[C@@H]5O[C@@H](C)[C@H](O)[C@@H](O)[C@H]5O)[C@@H](O)[C@H](O)[C@H]4O)cc3O2)cc1` [PCM-0216487], the inhibition at 10 µM was -3.1%.

As to `O=C(O)CCc1ccc(O)cc1O` [PCM-0214987], the inhibition at 10 µM is -10.9%.

`C=C1CC[C@H](O)C/C1=C/C=C1\CCC[C@]2(C)[C@@H]([C@H](C)/C=C/[C@H](C)C(C)C)CC[C@@H]12` [PCM-0214746]: the inhibition at 10 µM is -23.3%.

On to `COc1cc2ncnc(Nc3cccc(Cl)c3)c2cc1OC` [PCM-0012125], for which the inhibition at 10 µM turned out to be 21.4%.

As to `C[C@@H]1C/C=C/C=C/C=C/C=C/[C@H](O[C@@H]2O[C@H](C)[C@@H](O)[C@H](N)[C@@H]2O)C[C@@H]2O[C@](O)(C[C@@H](O)C[C@H]3O[C@@H]3/C=C/C(=O)O1)C[C@H](O)[C@H]2C(=O)O` [PCM-0214709], the inhibition at 10 µM was -22.6%.

Turning to `O=C1Nc2ccccc2C1=O` [PCM-0214846], the inhibition at 10 µM was 11.7%.

As to `NC(=O)c1cnc(NCCc2ccc(O)c(Cl)c2)nc1NCc1ccccc1` [PCM-0216041], the inhibition at 10 µM came to 47.1%.

As for `Nc1[nH]c(=O)ncc1F` [PCM-0086523], the inhibition at 10 µM is -6.2%.

As for `CCN(CC)c1ccc2cc(-c3nc4ccccc4s3)c(=O)oc2c1` [PCM-0215963], the inhibition at 10 µM is -5.1%.

For the compound `CN(C)C/C=C/C(=O)Nc1cc2c(Nc3ccc(F)c(Cl)c3)ncnc2cc1O[C@H]1CCOC1` [PCM-0094907], the inhibition at 10 µM is 84.8%.

In the case of `CC(=O)O[C@]1(C(C)=O)CC[C@H]2[C@@H]3C=C(C)C4=CC(=O)CC[C@]4(C)[C@H]3CC[C@@]21C` [PCM-0214613], the inhibition at 10 µM is -4.8%.

Consider `O=C(Nc1cc(Cl)cc2c1[nH]c1cnccc12)c1cccnc1` [PCM-0215579], for which the inhibition at 10 µM came to 12.4%.

With `Cc1ccc2c(c1)C(=O)[C@]1(O)CCN(c3ccccc3)C1=N2` [PCM-0095585], the inhibition at 10 µM is -6.9%.

Consider `COc1ccc(C(=O)O)cc1O` [PCM-0215975], for which the inhibition at 10 µM is -13.9%.

Consider `COc1ccc(CCc2cc(OC)c(OC)c(OC)c2)cc1O` [PCM-0216418], for which the inhibition at 10 µM was -24.7%.
